We go through two molecules from patent US20260306463A1, “SIK INHIBITORS TO TREAT CHRONIC KIDNEY DISEASE” (The General Hospital Corporation, priority 2023, published 2026).

The test system of assay [1] is human kidney organoids. Nature of the assay: cisplatin injury of human kidney organoids: immunostaining, organoid size. The assay is classed as cell-based. Conditions: intermittent cisplatin, 5 treatments; for proximal tubule cells: confocal microscopy. The protocol:
FIG. 7. SK-124 preserves human kidney organoid integrity in cisplatin injury model. Human kidney organoids derived from H9 embryonic stem cells were treated with intermittent cisplatin (5 separate treatments) based on published protocols along with the indicated agent. Organoids were cryo-sectioned and immuno-stained with the indicated markers. The top panels show low power images and the bottom panels focus on regions of proximal tubule cells. The graph measures the mean diameter of organoids in the control (no cisplatin), cisplatin+DMSO, and cisplatin+SK-124 treatment groups.
BJFF human induced pluripotent stem cells (hPSCs) were maintained on Geltrexcoated (Thermo Fisher Scientific) plates using StemFit Basic04 Complete (Ajinomoto Co. Inc.) as previously reported(25). The cells were passaged weekly using Accutase (STEMCELL Technologies) for dissociation and Y27632 (Tocris) for adhesion. Directed differentiation of hPSCs into kidney organoids has been published elsewhere (29). Briefly, hPSCs were differentiated into metanephric mesenchyme cells on day 8 by a three-step directed differentiation protocol. Metanephric mesenchyme was transferred into suspension culture in 96-well ultralow adhesion plates (Coming) and further differentiated into kidney organoids, as previously reported(25). Quality control measures of SIX2 immunostaining on day 8 of differentiation and CDH1, LTL, PODXL, CD146, MEIS1/2/3, and SYTOX-blue staining on day 21 were performed on all batches of kidney organoids to limit batch-to-batch heterogeneity. Kidney organoids were maintained in 200 μl of basal media consisting of Advanced RPMI (Thermo Fisher Scientific) and GlutaMAX (Thermo Fisher Scientific) in 96-well plates, as previously reported. Media changes were conducted three times weekly with removal of 90 [l and addition of 100 μl of fresh basal media.
For cisplatin induced injury, day 49 organoids were treated with 5 μM cisplatin in basal media after full media change. After 24 hours, full media exchanges were performed. This 24-hour treatment was performed twice a week, on day 52-53, day 56-57, day 59-60, and day 63-64 as well, for a total of five cisplatin treatments. Samples were obtained for RT-qPCR and immunostaining immediately following each 24-hour treatment with cisplatin, and from corresponding controls.
Following the treatment, the organoids were collected and immediately fixed in 4% PFA in PBS for 1 hour at room temperature, submerged in 30% sucrose overnight at 4° C., then embedded in O.C.T. Compound (4585. Fisher HealthCare). Subsequently, […] frozen sections were prepared via cryo-sectioning by a cryostat. After 1 hr blocking at room temperature, the sections were treated overnight at 4° C. with primary antibodies in antibody dilution buffer (ADB) with biotinylated LTL (1:200, B-1325, Vector), rat anti-CDH1 (1:500, ab11512, Abcam), goat anti-PODXL (1:500, AF1658, R&D Systems), as well as the antibody of interest, either mouse anti-p21 (1:200, NBP2-43697, Novus Biologicals), or rabbit anti-γH2AX (1:100, 2577, Cell Signaling) antibodies. For the optimum labeling of LTL by biotin/streptavidin interaction, the Streptavidin/Biotin Blocking Kit (SP-2002, Vector Laboratories) was applied according to the manufacturer's instructions. After washing, the samples were stained for 1 hour at RT with the nuclear dye-SYTOX Blue (1:500. S 11348, Invitrogen) and the corresponding secondary antibodies in ADB such as streptavidin-AF750 (1:500, S21384, Invitrogen), donkey anti-rat IgG-AF594 (1:500, A21209, Invitrogen), donkey anti-goat IgG-AF555 (1:500, A21432, Invitrogen), and donkey anti-rabbit IgG-AF488 (1:500, A21206, Invitrogen) for γH2AX or donkey anti-mouse IgG-AF488 (1:500, A21202, Invitrogen) for p21 antibodies as well as mouse anti-Meisl/⅔ (1:200, sc-101850, SantaCruz) conjugated antibody, and slides were mounted with Vectashield antifade mounting medium (H1000, Vector Laboratories). […]

Assay [2] has as its system human kidney organoids. Briefly: RNA-seq of cisplatin-injured human kidney organoids. Type of assay: cell-based. Conditions: for injury markers (Col8al, Fibronectin-1, Serpinel) / markers of intact proximal integrity (Lrp2 and Hnf4a): RNA-seq, cisplatin vs vehicle, or SK-124 vs DMSO within cisplatin-treated organoids. The method, then: FIGS. 13A-13E. Transcriptomic effects of SK-124 in cisplatin-induced human kidney organoid model. RNA-seq was performed on kidney organoid RNA samples (n=4/group) from FIG. 8. Volcano plot show gene regulated (>2-fold change, p(adj)<0.05) by cisplatin (versus vehicle, A) or within cisplatin-treated organoids by SK-124 (versus DMSO control, B). In Volcano plot, representative fibrosis/injury markers (Col8a1, Fni, Serpinel) and proximal tubule integrity (Lrp2 and Hnf4a) are shown. Scatterplot (C) and heatmap (D) showing integration of individual RNA-seq comparisons.
Isolated RNA samples from the mouse adenine diet study and human kidney organoid experiment were submitted to Novogene and bulk-RNA sequencing on NovaSeq X Plus Ilumina Novoseq Platform. Sequencing reads were mapped to the mouse reference genome (mm10/GRCm38) or human reference genome (GRCh38/hg38) using Salmon and differential gene expression analysis was performed using DESeq2.

With `CCc1nnc(-c2c(OC)cc(-c3cnc4cc(-c5cnn(C)c5)ccn34)cc2OC)o1` [SK-124, 2-[2,6-Dimethoxy-4-[7-(1-methylpyrazol-4-yl)imidazo[1,2-a]pyridin-3-yl]phenyl]-5-ethyl-1,3,4-oxadiazole], in assay [1], the cisplatin-induced organoid atrophy result is recorded as “reduced cisplatin-induced organoid atrophy”; the “organoid cellularity and size in response to cisplatin injury” value is “preserves organoid cellularity and size”; the proximal tubule cells entry was “preserved proximal tubule cells”. Further, in assay [2], the “injury markers (Col8al, Fibronectin-1, Serpinel)” value is on record as “reduced”; the “markers of intact proximal integrity (Lrp2 and Hnf4a)” value is “restored”. In assay [2] (scatterplot and heatmap, SK-124 vs DMSO in the setting of injury), the “genes regulated in cisplatin (versus control)” value was “conversely regulated”.
Take `N.N.[Cl][Pt][Cl]` [cisplatin, reference compound]: the proximal tubule cells entry in assay [1] is recorded as “proximal tubular loss”. Moreover, in assay [2], the “injury markers (Col8al, Fibronectin-1, Serpinel)” value is recorded as “induced”; the “markers of intact proximal integrity (Lrp2 and Hnf4a)” value is recorded as “reduced”.
